According to patent US4333926A, “Steryl-β-D-glucoside pharmaceutical compositions and use” (Nippon Shinyaku Co., Ltd., priority 1979, dated 1982):
Like-named read-outs stand apart in the source and are kept apart here.

Legend:
[1] = tested on: pulmonary hemorrhage under reduced pressure; assay: Vascular stabilization: pulmonary hemorrhage in mice under reduced pressure (Table 6; vascular stability summary table); type: in vivo; settings: for ED50: Mus musculus, iv, read-out: Vascular stability ED50; for ED50 (pulmonary hemorrhage): reduced pressure 50±0.5 mm Hg/15 sec
Procedure: For example, the following tables summarize the vascular stabilizing effect (described in detail below).
The surprising vascular stabilizing effect of these compounds can also be shown in a number of recognized models of which the following are typical.
The degree of pulmonary homorrhage in mice under reduced pressure of 50±0.5 mm Hg/15 sec was assessed by the scoring method, the ED50 of each compound being calculated from the ratio of inhibiting rate for treated animals over that for the control group according to the method of G. J. Mojovski et al., J. Pharmacol. Exp. Therap. 80, 1, 1944.

[2] = tested on: endotoxin shock; assay: Endotoxin shock mortality (48 hours); type: in vivo
Procedure: The mortality rate during the period of 48 hours following intravenous administration of 80% lethal dose (8 mg/kg) of endotoxin is observed with the effect of each compound being expressed as the ED50 (see Tanabe et al., Pharmacometrics Vol. 7 591, 1973).

[3] = tested on: local hemorrhage induced by snake venom (Naja Naja cobra); assay: Local hemorrhage induced by snake venom; type: in vivo, rats
Procedure: The inhibitory effect of SG and SGP on local hemorrhage induced by abdominal intracutaneous administration of snake venom (Naja Naja cobra) in rats was determined in terms of inhibiting rate against untreated control rats.

[4] = tested on: abdominal cutaneous vascular resistance; assay: Abdominal cutaneous vascular resistance, petechia appearance under reduced pressure (Borbely et al.); type: in vivo, guinea-pigs; settings: 100 mg/kg, s.c.; reduced pressure 250 to 260 mm Hg
Excerpt: The effect on abdominal cutaneous vascular resistance in guinea-pigs can also be used as a model of vascular stabilization. The time of appearance of petechia in abdominal skin of guinea-pigs under reduced pressure of 250 to 260 mm Hg is used as the index, with the petechia appearance delaying effect of each test compound in comparison with the control being determined according to the method of V. Borbely et al., Munch.

[5] = tested on: passive systemic anaphylaxis; assay: Passive systemic anaphylaxis lethality (Munoz et al.); type: in vivo, guinea-pigs
Procedure: The preventive effect against passive systemic anaphylaxis was determined according to the method of Munoz et al., J. Immunol., 80, 77 (1958). An antigen of 80% lethal dose is intravenously administered to antiserum-sensitized guinea-pigs, and the resultant passive systemic anaphylaxis lethality is expressed as the inhibition rate as compared with the control group.

[6] = tested on: increased vascular permeability caused by histamine; assay: Increased vascular permeability caused by histamine, rat; type: in vivo; settings: 100 mg/kg, i.p.
Procedure: (§1) The inhibitory effect on increased vascular permeability caused by intracutaneous administration of histamine, hyaluronidase, lecithinase A and formalin is also correlated to vascular stabilization. This parameter was measured by the dye leakage method with the inhibitory effect of each test drug expressed in terms of inhibiting rate over the control according to the methods of Benditt et al., Proc. Soc. Biol. Med. 75 782 1950 and Orary et al., J. Exp. Med. 117, 951, 1963.

[7] = tested on: increased vascular permeability induced by hyaluronidase; assay: Increased vascular permeability induced by hyaluronidase, rabbit; type: in vivo; settings: 100 mg/kg, i.p.
Procedure: as §1

[8] = tested on: gastric mucosal hemorrhaging induced by electroshock; assay: Gastric mucosal hemorrhage induced by electroshock (Danno et al.); type: in vivo, rats
[9] = tested on: increased vascular permeability caused by histamine; assay: Increased vascular permeability caused by histamine, rabbit; type: in vivo; settings: 100 mg/kg, i.p.
Procedure: as §1

[10] = tested on: increased vascular permeability induced by formalin; assay: Increased vascular permeability induced by formalin; type: in vivo, rabbits; settings: 100 mg/kg, i.p.
Procedure: as §1

[11] = tested on: increased vascular permeability induced by lecithinase A; assay: Increased vascular permeability induced by lecithinase A; type: in vivo, rabbits; settings: 100 mg/kg, i.p.
Procedure: as §1

[12] = tested on: hemorrhages induced by vesical mucosal resection; assay: Hemorrhage induced by vesical mucosal resection (Dermaut et al.); type: in vivo, dogs; settings: 5 mg/kg i.v.
[13] = tested on: bleeding from amputated tail tip; assay: Hemostatic effect, bleeding from amputated tail tip (Motohashi et al.); type: in vivo, mice
[14] = tested on: Arthus reaction; assay: Arthus reaction, increased vascular permeability (Benacerral et al.); type: in vivo, guinea-pigs; settings: 100 mg/kg, i.p.; 5 hours after provocation
Procedure: Increased vascular permeability five hours after provocation of reaction is measured as the leakage of hemoglobin according to the method of Benacerral et al., J. Immunol.

[15] = tested on: bleeding from punctured ear vein; assay: Inhibitory effect on bleeding from ear vein (Duke); type: in vivo, rabbits; settings: 10 mg/kg i.v., 3 hours after administration
Excerpt: The hemostatic effect can also be observed by measuring the inhibitory effect on bleeding from ear vein in rabbits.

[16] = tested on: increased vascular permeability induced by hyaluronidase; assay: Increased vascular permeability induced by hyaluronidase, rat; type: in vivo; settings: 100 mg/kg, i.p.
Procedure: as §1

CC(C)[C@H](C)CC[C@@H](C)[C@H]1CC[C@H]2[C@@H]3CC=C4C[C@@H](O[C@@H]5O[C@H](CO)[C@@H](O)[C@H](O)[C@H]5O)CC[C@]4(C)[C@H]3CC[C@]12C [Campesteryl-β-D-glucoside]
ED50 [1]: 2.4 mg/kg

CC[C@H](/C=C/[C@@H](C)[C@H]1CC[C@H]2[C@@H]3CC=C4C[C@@H](O[C@@H]5O[C@H](CO)[C@@H](O)[C@H](O)[C@H]5O)CC[C@]4(C)[C@H]3CC[C@]12C)C(C)C [Stigmasteryl-β-D-glucoside]
ED50 ([1]; summary table by compound): 2.33 mg/kg

CC[C@H](CC[C@@H](C)[C@H]1CC[C@H]2[C@@H]3CC=C4C[C@@H](O[C@@H]5O[C@H](CO)[C@@H](O)[C@H](O)[C@H]5O)CC[C@]4(C)[C@H]3CC[C@]12C)C(C)C [β-sitosteryl-β-D-glucoside]
ED50 ([1]; summary table by compound): 1.48 mg/kg

CC(C)CCC[C@@H](C)[C@H]1CC[C@H]2[C@@H]3CC=C4C[C@@H](O[C@@H]5O[C@H](CO)[C@@H](O)[C@H](O)[C@H]5O)CC[C@]4(C)[C@H]3CC[C@]12C [Cholesteryl-β-D-glucoside]
ED50 ([1]; summary table by compound): 1.8 mg/kg

CN1C2=CC(=O)/C(=N\NC(N)=O)C=C2CC1S(=O)(=O)[O-].[Na+] (centres unmarked) [Carbazochrome sodium sulfonate]
effect on endotoxin shock ([2]; doses of less than 200 mg/kg): no niticeable effect
ED50 (endotoxin shock) ([2]; i.p., endotoxin 80% lethal dose (8 mg/kg) i.v., 48 hours): > 200.0 mg/kg
inhibitory effect against death from endotoxin-shock ([2]; in vivo): far inferior in effect to SG and SGP
inhibitory effect against hemorrhagic action of snake venom ([3]; 100 mg/kg): only slight effects
% Inhibition (local hemorrhage) ([3]; 100 mg/kg i.p.): 9.1%
Prolongation Rate (test group/control group) [4]: 1.7
% Inhibition (PSA lethality) ([5]; 100 mg/kg, i.p., antigen 80% lethal dose i.v.): 20%
effect on passive systemic anaphylaxis ([5]; dose of 100 mg/kg): only very slight effects
% Inhibition [6]: 32.7%
% Inhibition [7]: 4.7%
electroshock hemorrhage arresting effect ([8]; dose of 200 mg/kg): no noticeable effect
ED50 (inhibiting gastric mucosal hemorrhage) ([8]; s.c., electroshock 100-200 V, 3 times/min., 24 hours): > 200.0 mg/kg
% Inhibition [9]: 29.6%
% Inhibition [10]: 0.4%
% Inhibition [11]: 10.8%
% Inhibition (bleeding) [12]: 39.9%
ED50 (hemostatic effect) ([13]; i.p.): 5.4 mg/kg
ED50 (hemostatic effect) ([13]; i.v.): 3.6 mg/kg
ED50 (hemostatic effect) ([13]; p.o.): 36.0 mg/kg
% Inhibition (Arthus reaction) [14]: 26.3%
% Reduction (time of bleeding) [15]: 20.0%
% Inhibition [16]: -4.5%
ED50 (pulmonary hemorrhage) ([1]; i.p.): 112.0 mg/kg
ED50 (pulmonary hemorrhage) ([1]; i.v.): 80.0 mg/kg
ED50 (pulmonary hemorrhage) ([1]; p.o.): 400.0 mg/kg
